In EP3991726A1, “ANTI-INFLAMMATORY COMPOSITION COMPRISING PALMITOYLETHANOLAMIDE AND PHYCOCYANIN” (priority 2020, dated 2022):

Experiments:
[1] = tested on: human pulmonary epithelium BEAS-2B; assay: MTT test for cytotoxicity; type: cell-based; conditions: tested in the range 10 nM - 1 µM
Procedure: (§1) In a model of human pulmonary epithelium BEAS-2B (ATCC - CRL-9609), PC and PEA were tested in the range 10 nM - 1 µM.

[2] = tested on: human pulmonary epithelium BEAS-2B; assay: Cell proliferation by crystal violet colouring; type: cell-based; conditions: tested in the range 10 nM - 1 µM
Procedure: as §1

COX-2 (human) = biological target: T1, COX-2 (human) (Homo sapiens, UniProt P35354); assay: COX-2 (human) Inhibitor Screening Assay Kit, in vitro ELISA method; type: biochemical; conditions: Cayman Chemical # 701080
T1 construct: purchased Cayman Chemical 701080
T1 sequence (P35354 18-604): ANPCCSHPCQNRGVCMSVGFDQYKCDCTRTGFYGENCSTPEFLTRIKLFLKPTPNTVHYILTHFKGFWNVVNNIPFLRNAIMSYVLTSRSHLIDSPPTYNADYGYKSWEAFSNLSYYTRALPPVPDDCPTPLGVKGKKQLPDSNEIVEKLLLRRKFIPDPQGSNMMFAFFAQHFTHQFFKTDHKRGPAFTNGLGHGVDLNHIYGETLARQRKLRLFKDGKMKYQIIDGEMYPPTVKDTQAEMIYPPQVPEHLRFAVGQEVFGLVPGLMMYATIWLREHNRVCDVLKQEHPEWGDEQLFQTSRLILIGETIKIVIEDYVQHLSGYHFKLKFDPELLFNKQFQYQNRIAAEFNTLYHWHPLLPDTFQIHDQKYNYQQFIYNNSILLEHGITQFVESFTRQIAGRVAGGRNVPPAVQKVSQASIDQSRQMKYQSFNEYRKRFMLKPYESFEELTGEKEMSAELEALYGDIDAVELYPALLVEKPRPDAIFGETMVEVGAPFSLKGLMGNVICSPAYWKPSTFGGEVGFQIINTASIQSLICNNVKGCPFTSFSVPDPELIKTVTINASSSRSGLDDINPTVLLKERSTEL
Text: Measurement of the IC50 in an in vitro test (ELISA method - COX-2 (human) Inhibitor Screening Assay Kit, # 701080, Cayman Chemical) gave the following results.

[3] = tested on: human pulmonary epithelium cell line BEAS-2B; assay: ROS measured as fluorescence emission of intracellular probe DCF-DA after LPS or Poly I:C stimulus; type: cell-based; conditions: stimulus LPS or PIC, PC and PEA 1 µM for 48h, Figure 1
Procedure: (§2) The cells were treated with PC and PEA 1 µM for 48h. The ROS (which are powerful oxidants) were measured as fluorescence emission of the intracellular probe DCF-DA (dichlorofluorescein diacetate). The toxicity was measured as release of an intracellular enzyme (lactate dehydrogenase LDH) in the extracellular medium; the release is proportional to the toxicity and is measured with a spectrophotometer.

[4] = tested on: human pulmonary epithelium cell line BEAS-2B; assay: Toxicity as lactate dehydrogenase (LDH) release after LPS or Poly I:C stimulus; type: cell-based; conditions: stimulus LPS or PIC, PC and PEA 1 µM for 48h, Figure 1
Procedure: as §2

[5] = tested on: interleukin 8 (IL-8) transcript; assay: IL-8 transcript by real-time PCR after inflammatory stimulus; type: cell-based, human; conditions: BEAS-2B, bacterial (LPS) or viral (PIC) stimulus, PC and PEA 1 µM for 24h, Figure 2
Procedure: The cells were treated with PC and PEA 1 µM for 24h. The interleukin 8 (IL-8) transcript was measured by means of real-time PCR.

[6] = tested on: transcripts for subunits 2 and 4 of complex IV of the mitochondrial respiratory chain (COX2 and COX4) and two subunits of the ATP synthase mitochondrial enzyme …; assay: Mitochondrial respiratory chain and ATP synthase transcripts by real-time PCR; type: cell-based, human; conditions: BEAS-2B, bacterial (LPS) or viral (PIC) stimulus, PC and PEA 1 µM for 24h, Figure 3
Procedure: The cells were treated with PC and PEA 1 µM for 24h. The transcripts for subunits 2 and 4 of complex IV of the mitochondrial respiratory chain (COX2 and COX4) and the transcripts for two subunits of the ATP synthase mitochondrial enzyme (ATP mit and ATP n) were measured by means of real-time PCR.

CCCCCCCCCCCCCCCC(=O)NCCO [PEA, palmitoylethanolamide]
toxicity (MTT test) [1]: absence of toxicity | effect on cell growth (proliferation, crystal violet) [2]: no effect on cell growth | IC50 (COX-2 (human)): 575 nM | oxidative stress (ROS, DCF-DA fluorescence) [3]: protect from oxidative stress | toxicity (LDH release in the extracellular medium) [4]: protect from oxidative stress and toxicity | production of inflammatory cytokines (IL-8 transcript) [5]: reduce the production of inflammatory cytokines | activation of the mitochondrial respiratory burst (COX2, COX4, ATP mit, ATP n transcripts) [6]: reduce activation of the mitochondrial respiratory burst
